Consider 1 molecule from US20030229140A1, “Herbal molecule as potential anti-leukemic drug” (priority 2002, published 2003).

One experiment relates to CML patient's PBMC. The experiment in a line: Incubation of CML patient's PBMC (leukemic cells) with CA/PCQ, viable cell count. Type of experiment: cell-based, human. The settings on record: for % Inhibition of cell growth (After 3 days of incubation): CML patient's leukemic cells, 2×10^5 cells per ml per well. How it is done: Whole blood (10 ml each) was drawn from previously diagnosed myeloid leukemic patients, one patient was diagnosed as AML and the other one was diagnosed as CML. Mononuclear cells were separated by Ficoll/hypaque density gradient centrifugation. […] Cells were then washed and counted for viability.

Another experiment deals with leukemic cells. Put plainly: Biological activity (destruction of leukemic cells) of Piper betel fractions and HPLC peaks. The settings on record: fractions, zones and HPLC peaks of Piper betel leaf extract. Type of experiment: cell-based. The protocol: Collected material was examined for biological activity i.e. destruction of leukemic cells. […] 10 gm of above-mentioned material was loaded on Sephadex LH-20 column and chromatographed with water, water-methanol (1:1) and methanol as eluent. Three different fractions thus obtained from three different solvent systems were separately checked for biological activity. […] The column was equilibrated with methanol-water-acetic acid (23:76:1), flow rate was maintained at 1.0 ml per min and peaks were identified at 280 nm. According to the retention time (RE) different peaks could be divided into three zones, ZA/ZB and ZC (FIG. 1). ZA had 4 major peaks whereas ZB had very small to moderate 10 peaks and ZC had two distinct peaks. It was convenient to observe biological activity of three zones AA, ZB and ZC, which were separately tested on leukemia cells for destructive activity.

Experiment [1] concerns Erythroleukemic cell line (K562). The experiment in a line: Incubation of CD33- erythroleukemic cell line K562 with CA/PCQ, viable cell count. Type of experiment: cell-based. The settings on record: for % Inhibition of cell growth (After 3 days of incubation): 2×10^5 cells per ml per well. The source says:
This cell line was collected from American Type Culture Collection (ATCC), VA, USA. This cell line is […]. […] Cells were then washed and counted for viability.

In another experiment the test system is CD33+ myeloid cells. The settings on record: earlier patent filing; cited from earlier work.
The test system of experiment [2] is Promonocytic cell line (U937). Put plainly: Incubation of CD33+ promonocytic cell line U937 with CA/PCQ, viable cell count. Type of experiment: cell-based. The settings on record: for % Inhibition of cell growth (After 3 days of incubation): 2×10^5 cells per ml per well. How it is done:
Culture of Promonocytic cell line U937. […] This cell line is CD33^+. Incubation of CD33^+ cell line U937 with CA. […] Cells were then washed and counted for viability.

A further experiment relates to Normal PBMC. The experiment in a line: Growth inhibition of normal individuals' PBMC by CA/PCQ. Type of experiment: cell-based, human. The settings on record: Normal individual's PBMC, 3 days, 2×10^5 cells per ml per well.

Structures are written as SMILES.

Description for Normal PBMC: Preparation of peripheral blood mononuclear cells (PBMC) from normal individuals. Whole blood was collected and mononuclear cells were separated by Ficoll/Hypaque density gradient centrifugation.

As for `O=C(C=Cc1ccc(O)cc1)OC1CC(O)(C(=O)O)CC(O)C1O` (stereo not shown) [PCQ, 3-o-p-Coumaryl quinic acid], the “growth inhibition of leukemic cell lines” value is “up to 2.38%” in the experiment with CML patient's PBMC (CML leukemic cells, 2×10^6/ml/well, 25 μg/ml of PCQ); “up to 4%” in experiment [1] (K562, 2×10^6/ml/well, 25 μg/ml); “up to 2.08%” in experiment [2] (U937, 2×10^6/ml/well, 25 μg/ml of PCQ). Moreover, the “% Inhibition of cell growth (After 3 days of incubation)” value is 2.38% in the experiment with CML patient's PBMC (25.0 μg/ml); 4.76% with CML patient's PBMC (50.0 μg/ml); 4.00% in experiment [1] (K562, 25.0 μg/ml); 8.00% in experiment [1] (K562, 50.0 μg/ml); 2.08% in experiment [2] (U937, 25.0 μg/ml); 4.17% in experiment [2] (U937, 50.0 μg/ml). Moreover, the “% Inhibition of cell growth (After 3 days of incubation)” value in the experiment with Normal PBMC (25.0 μg/ml) amounted to 0.00%; with Normal PBMC (50.0 μg/ml) it was 1.67%. Also, in the experiment with leukemic cells, the “biological activity i.e. destruction of leukemic cells (in words)” value is on record as “demonstrated considerable activity”. In addition, the “CD33+ myeloid cells destruction (in words)” value in the experiment with CD33+ myeloid cells was “showed CD33+myeloid cells destruction”.
